Read-outs that look alike come from different tables or passages of the source.

The values below come from patent US10618913B2, “Macrocycles as PDE1 inhibitors” (H. Lundbeck A/S, priority 2017, dated 2020).

Common to all, as to type: biochemical
In test [1] the target is PDE1A (Homo sapiens (Human), UniProt P54750). Briefly: PDE1 inhibition assay (SPA, tritium labelled cAMP), PDE1A. As to conditions: Table 1, compounds of the invention; 15 nM tritium labelled cAMP.
Method: (§1) Reactions were initiated by addition of the cyclic nucleotide substrate, and reactions were allowed to proceed for 1 hr at room temperature before being terminated through mixing with 20 μL (0.2 mg) yttrium silicate SPA beads (PerkinElmer).
Test [2] has as its target PDE1C (Homo sapiens (Human), UniProt Q14123). The test is described as follows: PDE1 inhibition assay (SPA, tritium labelled cAMP), PDE1C. As to conditions: Table 1, compounds of the invention; 15 nM tritium labelled cAMP.
Method: Reactions were initiated by addition of the cyclic nucleotide substrate, and reactions were allowed to proceed for 1 hr at room temperature before being terminated through mixing with 20 μL (0.2 mg) yttrium silicate SPA beads (PerkinElmer). The beads were allowed to settle for 1 hr in the dark before the plates were counted in a Wallac 1450 Microbeta counter.
Test [3] concerns the target PDE1B (Homo sapiens (Human), UniProt Q01064). Briefly: PDE1 inhibition assay (SPA, tritium labelled cAMP), PDE1B.
Method: as §1
Where [4] appears, read: Table 1, compounds of the invention, 15 nM tritium labelled cAMP, read-out: PDE1B, IC50.

Chain of PDE1B (Q01064 whole entry): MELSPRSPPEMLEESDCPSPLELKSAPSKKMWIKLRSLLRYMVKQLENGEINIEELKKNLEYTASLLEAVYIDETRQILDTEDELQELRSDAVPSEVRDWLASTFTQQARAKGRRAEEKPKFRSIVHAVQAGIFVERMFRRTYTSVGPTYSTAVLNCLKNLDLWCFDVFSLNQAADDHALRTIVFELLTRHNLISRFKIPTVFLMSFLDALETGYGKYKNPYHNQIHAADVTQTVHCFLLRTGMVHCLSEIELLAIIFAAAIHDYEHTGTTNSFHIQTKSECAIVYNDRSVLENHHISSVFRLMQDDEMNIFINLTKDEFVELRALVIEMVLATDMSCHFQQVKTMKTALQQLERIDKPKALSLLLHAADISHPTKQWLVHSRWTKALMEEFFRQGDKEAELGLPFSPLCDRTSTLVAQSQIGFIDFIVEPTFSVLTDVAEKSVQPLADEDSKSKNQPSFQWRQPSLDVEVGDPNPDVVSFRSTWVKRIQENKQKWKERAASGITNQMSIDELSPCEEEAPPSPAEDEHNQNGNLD
Chain of PDE1C (Q14123 whole entry): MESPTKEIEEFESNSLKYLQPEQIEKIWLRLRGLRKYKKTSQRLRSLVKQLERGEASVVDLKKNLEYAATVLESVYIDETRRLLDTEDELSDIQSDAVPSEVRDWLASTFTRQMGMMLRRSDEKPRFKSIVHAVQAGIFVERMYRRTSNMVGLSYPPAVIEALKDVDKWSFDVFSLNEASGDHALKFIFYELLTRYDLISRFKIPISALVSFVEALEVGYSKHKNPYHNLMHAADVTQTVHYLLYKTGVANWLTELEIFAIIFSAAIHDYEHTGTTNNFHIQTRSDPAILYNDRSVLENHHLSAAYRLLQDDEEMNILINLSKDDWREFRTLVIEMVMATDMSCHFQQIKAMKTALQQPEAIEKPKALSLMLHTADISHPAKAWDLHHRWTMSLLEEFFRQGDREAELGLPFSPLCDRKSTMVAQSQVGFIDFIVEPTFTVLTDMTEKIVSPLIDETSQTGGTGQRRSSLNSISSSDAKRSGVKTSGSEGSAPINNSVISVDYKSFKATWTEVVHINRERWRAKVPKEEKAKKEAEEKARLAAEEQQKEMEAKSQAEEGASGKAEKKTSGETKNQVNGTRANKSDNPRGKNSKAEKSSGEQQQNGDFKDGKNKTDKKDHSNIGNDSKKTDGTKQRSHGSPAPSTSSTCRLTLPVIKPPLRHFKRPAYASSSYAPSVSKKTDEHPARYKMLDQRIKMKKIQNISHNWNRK
Chain of PDE1A (P54750 whole entry): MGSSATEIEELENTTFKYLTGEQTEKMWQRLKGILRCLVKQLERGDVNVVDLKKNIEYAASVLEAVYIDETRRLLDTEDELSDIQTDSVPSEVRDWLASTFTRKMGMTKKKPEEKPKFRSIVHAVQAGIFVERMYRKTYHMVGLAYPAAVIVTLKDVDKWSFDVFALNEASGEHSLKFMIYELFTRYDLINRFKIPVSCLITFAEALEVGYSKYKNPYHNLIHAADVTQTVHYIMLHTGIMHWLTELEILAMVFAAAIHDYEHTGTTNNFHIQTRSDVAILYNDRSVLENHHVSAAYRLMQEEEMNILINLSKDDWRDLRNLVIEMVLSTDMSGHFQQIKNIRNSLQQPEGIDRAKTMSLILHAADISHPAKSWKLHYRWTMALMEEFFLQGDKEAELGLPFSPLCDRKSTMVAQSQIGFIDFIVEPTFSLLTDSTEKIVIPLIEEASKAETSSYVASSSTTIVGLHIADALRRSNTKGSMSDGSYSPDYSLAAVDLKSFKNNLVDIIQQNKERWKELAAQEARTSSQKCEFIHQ

What is called IC50 is the concentration needed to halve the response being measured. With `Cc1nn(C(C)C)c2c3cc(nc12)-c1cccnc1OCCCOc1ncccc1CN3` [Example 3, 2^1-isopropyl-2^3-methyl-2^1H-6,10-dioxa-3-aza-2(5,7)-pyrazolo[4,3-b]pyridina-1,5(3,2)-dipyridinacyclodecaphane], the values for the IC50 in test [1], in test [2] and in test [3] (setting [4]) were 38 nM, 69 nM and 4.2 nM, respectively.
The corresponding values for `Cc1nn(C(C)C)c2c3cc(nc12)-c1cccnc1OCCCCCOc1ncccc1CN3` [Example 2, 2^1-isopropyl-2^3-methyl-2^1H-6,12-dioxa-3-aza-2(5,7)-pyrazolo[4,3-b]pyridina-1,5(3,2)-dipyridinacyclododecaphane] are 18 nM, 54 nM and 1.5 nM.
Turning to `Cc1nn(C(C)C)c2c3cc(nc12)-c1cccnc1OCCCCn1nccc1CN3` [Example 9, 2^1-isopropyl-2^3-methyl-2^1H,5^1H-10-oxa-3-aza-2(5,7)-pyrazolo[4,3-b]pyridina-1(3,2)-pyridina-5(5,1)-pyrazolacyclodecaphane], the IC50 in test [1] turned out to be 53 nM; in test [2], 56 nM; in test [3] (setting [4]) it was 15 nM.
For orientation: inhibition means how much of the control response was suppressed. Turning to `Cc1nn(C(C)C)c2c3cc(nc12)-c1cccnc1OCCCCOc1nccnc1CN3` [Example 10, 2^1-isopropyl-2^3-methyl-2^1H-6,11-dioxa-3-aza-2(5,7)-pyrazolo[4,3-b]pyridina-5(2,3)-pyrazina-1(3,2)-pyridinacycloundecaphane], the IC50 is 10 nM in test [1] and 17 nM in test [2]. The inhibition at 10 µM in test [3] (read-out: PDE1B, inhibition at 10 μM) was greater than 99%.
Turning to `Cc1nn(C(C)C)c2c3cc(nc12)-c1cccnc1OCCCCOc1ncccc1CN3` [Example 1, 2^1-isopropyl-2^3-methyl-2^1H-6,11-dioxa-3-aza-2(5,7)-pyrazolo[4,3-b]pyridina-1,5(3,2)-dipyridinacycloundecaphane], the IC50 in test [1] turned out to be 12 nM; in test [2], 20 nM; in test [3], 1.4 nM.
In the case of `CCn1nc(C)c2nc3cc(c21)NCc1cccnc1OCCCCOc1ncccc1-3` [Example 8, 2^1-ethyl-2^3-methyl-2^1H-6,11-dioxa-3-aza-2(5,7)-pyrazolo[4,3-b]pyridina-1,5(3,2)-dipyridinacycloundecaphane], the IC50 turned out to be 256 nM in test [1], 412 nM in test [2] and 36 nM in test [3] (setting [4]).
For the compound `Cc1nn(C(C)C)c2c3cc(nc12)-c1cccnc1OCCOCCOc1ncccc1CN3` [Example 4, 2^1-isopropyl-2^3-methyl-2^1H-6,9,12-trioxa-3-aza-2(5,7)-pyrazolo[4,3-b]pyridina-1,5(3,2)-dipyridinacyclododecaphane], the 50% inhibitory concentration (IC50) in test [1] was found to be 2.6 nM; in test [2] it was 16 nM; in test [3] (setting [4]) it was 0.54 nM.
In the case of `Cc1nn(C)c2c3cc(nc12)-c1cccnc1OCCCCOc1ncccc1CN3` [Example 7, 2^1,2^3-dimethyl-2^1H-6,11-dioxa-3-aza-2(5,7)-pyrazolo[4,3-b]pyridina-1,5(3,2)-dipyridinacycloundecaphane], the results for the IC50 in test [1], in test [2] and in test [3] (setting [4]) were 428 nM, 497 nM and 95 nM, respectively.
`Cc1nn(C(C)C)c2c3cc(nc12)-c1cccnc1OCCCCCn1nccc1CN3` [Example 5, 2^1-isopropyl-2^3-methyl-2^1H,5^1H-11-oxa-3-aza-2(5,7)-pyrazolo[4,3-b]pyridina-1(3,2)-pyridina-5(5,1)-pyrazolacycloundecaphane]: the results for the IC50 in test [1], in test [2] and in test [3] (setting [4]) were 25 nM, 80 nM and 4.7 nM, respectively.
`Cc1nn(C(C)C)c2c3cc(nc12)-c1cccnc1OCCCCOc1cccnc1CN3` [Example 6, 2^1-isopropyl-2^3-methyl-2^1H-6,11-dioxa-3-aza-2(5,7)-pyrazolo[4,3-b]pyridina-1(3,2),5(2,3)-dipyridinacycloundecaphane]: the IC50 in test [1] turned out to be 0.47 nM; in test [2] it was 3.9 nM; in test [3] (setting [4]) it was 0.27 nM.
